Results from patent US20080058636A1, “METHODS OF MYOCARDIAL IMAGING” (Epix Pharmaceuticals, Inc., priority 2005, published 2008).

Columns and labels:
[1] = In vivo heart uptake in mice, gadolinium by ICP-MS (tail vein); parameters: species or system BALB/c mice; conditions: mouse, 10 μmol/kg tail vein, 15 minutes post-injection
Description: In vivo heart uptake of these two compounds were also compared. […] The animals were sacrificed at 15 minutes post-injection. The organs were immediately removed and rinsed in saline, and then blotted dry. […] Both compounds have similar concentrations in the blood.

infarcted myocardium [2] = assay: Mouse model of chronic infarction, MR imaging; conditions: mice with 7 day, 40 day or 210 day infarcts, 25 μmol/kg i.v.
Description: Myocardial infarction was induced in C57BL/6 mice by occlusion of the left anterior descending coronary artery followed by reperfusion. The mice were anesthetized with an intraperitoneal (i.p.) injection of 100 μg pentobarbital sodium per gram body weight and a thorocotamy was performed. The pericardium was removed and the left anterior artery was sutured with a 7.0 silk suture for 60 minutes after which reperfusion was established.
Imaging was performed on separate animals at 7 days, 40 days, or 210 days following infarction. Imaging was performed using on a Varian 4.7 T MRI system Mice were anesthetized with isoflurane (1 vol. % in oxygen). Three pediatric electrocardiogram (ECG) leads were attached to shaved limbs and a rectal temperature probe was placed. […] Temperature was maintained at 37.0±0.5° C. using circulating hot water. Imaging was performed prior to, and serially (every 5 minutes) post intravenous (tail vein) injection of 25 μmol/kg Compound ID NO. […] 6-8 short-axis inversion-recovery slices covering the whole heart from base to apex were acquired with TI=430 ms, TR=1000 ms, RE=4.3 ms and 2 averages.
A heart with a 40 day old infarct was explanted, thoroughly washed in saline solution and fixed in a 3% by volume isotonic solution of formaldehyde for 12 hrs at 3° C. They were washed in PBS and stored in 70% ETOH before embedding in paraffin. […]

infarcted myocardium [3] = assay: Myocardial infarction MR imaging in mouse (7 days post MI); conditions: 25 μmol/kg i.v.
Description: A myocardial infarct (MI) was induced in a 28 g C57BL/6 mouse by a 1-hr occlusion of the left anterior descending coronary artery, followed by reperfusion. The mouse was allowed to recover. Seven days post MI, the mouse was anesthetized using a 2% mixture of isoflurane in oxygen and anesthesia was maintained with a 1% mixture. The mouse forelimbs were shaved and fitted with pediatric ECG leads (Blue Sensor, BRS-50-K/UJS, Ambu, Inc., Linthicum, Md.). […] Temperature was maintained at 37° C. using tubing that contained circulating, thermostated water. An i.v. line was implanted in the tail vein and the mouse was placed in the magnet.
Images were acquired on a Varian 4.7-T Inova scanner. A cardiac-gated gradient echo inversion recovery sequence was used whereby the inversion time was set to null the signal from the myocardium. The inversion pulse was a non-selective sinc pulse with a TI of 430 ms and TR of 3 seconds. The excitation is slice selective at 90 degrees and 3 to 4 lines were acquired per TR. Scan time was 4-5 minutes.
Baseline images were acquired. Typically 3-4 short-axis slices were acquired. […] Imaging was repeated out to an hour post injection.

[4] = Biodistribution (heart, blood) after tail vein injection, radiotracer counting; type: in vivo, Sprague-Dawley rats; conditions: for Blood (% ID/g) / Heart (% ID/g): rat, 0.5 μmol/kg tail vein
Description: Concentration estimates were decay corrected. Studies were performed at least in duplicate.

[5] = test system: perfused Langendorff rat heart; assay: Equilibrium binding to perfused Langendorff rat heart
Description: After deep anesthesia with pentobarbital (80 mg/kg ip), the chest cavity of a male Sprague Dawley rat (300 g) was opened, retracted and the heart was removed immediately and placed in an ice-cold normal Krebs-Henseleit (K-H) solution (NaCl, 118 mM; KCl, 4.7 mM; CaCl2, 2.5 mM; MgSO4, 1.2 mM; KH2PO4, 1.2 mM; NaHCO3, 25 mM; glucose, 5.5 mM). A K-H buffer filled 20 Gauge needle was inserted into the apex of the heart penetrating into the bottom of the chamber. This was attached to a pressure transducer used to record and monitor heart function. Perfusion pressure (60 mmHg) was monitored using a second transducer. The heart was perfused at a constant flow rate of 10-12 mL/min with 37° C. Krebs-Henseleit buffer saturated with a mixture of 95% O2 and 5% CO2 gas. The heart was paced at 300 beats/min.
Two peptide test articles, a high collagen binding peptide (SEQ ID NO: 144) and a low collagen binding peptide (SEQ ID NO: 173), are compared to GdDTPA. The appropriate test article was added to the K-H buffer solution to a total concentration of either 3 or 30 μM. Also added to the K-H buffer was a radiotracer analog of each peptide or GdDTPA. For the peptides, the radiotracer was an aliquot of the appropriate I-125 labeled peptide derivative (see Example 5 for protocol). For GdDTPA, the tracer added was Tc-99m labeled DTPA. The amount of radioactivity added to the buffer solution was 1-5 μCi.
The heart was perfused for a period of 10 minutes and the perfusion solution was recycled through the heart. The total volume of K-H buffer used was 50-60 mL. After 10 min, the heart was removed from the apparatus and any connective tissue was removed. The heart was opened, fluid in the chambers drained, and the interior blotted dry with filter paper. The heart was then weighed and the radioactivity in the heart measured with a Packard Cobra 5003 Gamma Scintillation counter. An aliquot of the K-H buffer was also weighed and counted. Studies were performed at least in duplicate.
The dual peptide gadolinium tetramer (Compound ID 803) was compared to GdDTPA. Compound ID 803 and GdDTPA were added to the K-H buffer solution to a total concentration of 3 μM. Also added to the K-H buffer was a radiotracer analog of Compound ID 803 or GdDTPA. For Compound ID 803, the radiotracer was an aliquot of the In-111 labeled compound. For GdDTPA, the tracer added was Tc-99m labeled DTPA. The amount of radioactivity added to the buffer solution was 1-5 μCi.

[6] = test system: perfused Langendorff rat heart; assay: Washout kinetics from perfused Langendorff rat heart
Description: A K-H buffer filled 20 Gauge needle was inserted into the apex of the heart penetrating into the bottom of the chamber. This was attached to a pressure transducer used to record and monitor heart function. Perfusion pressure (60 mmHg) was monitored using a second transducer. The heart was perfused at a constant flow rate of 10-12 mL/min with 37° C. […] The heart was paced at 300 beats/min.
A Langendorff rat heart preparation was perfused with K-H buffer at a rate of 10-12 mL/min. […] After the infusion was finished, the heart was either removed or perfusion was allowed to continue for an additional 10 minutes and then the heart was removed. The perfusion buffer was not recirculated through the heart. After removal of any connective tissue, the heart was opened, fluid in the chambers drained, and the interior blotted dry with filter paper. […] An aliquot of the K-H buffer was also weighed and counted. Concentration estimates were decay corrected. Studies were performed at least in duplicate.

[7] = MR phantom study: T1 of samples at 0.47 Tesla; type: physicochemical; conditions: 37° C.
Description: Acid soluble human collagen type I extracted from placenta (Sigma, cat# C7774, lot#083K375) was dissolved in 15 mM HCl (3.5 mg/mL) by vortexing and gently shaking for 3-4 hours at 4° C. The acid soluble collagen was dialyzed against PBS (pH 7.4). Protein concentration was determined by the BCA method (Pierce, Cat#23225) using bovine collagen (Vitrogen, cat#FXP-019) as a reference standard. The final collagen concentration for the stock solution was 9 μM.
Rat collagen (acid soluble, type I, rat tail, Upstate USA, Inc. Cat# 08-115) was dialyzed against 10 mM Phosphate buffer (NaH2PO4, pH 4.2). The final collagen concentration for the stock solution was approx. 12 μM.
(§1) Samples: • 1. […] Sample prepared as sample 2, but centrifuged to separate insoluble rat collagen gel • 5. Sample prepared as sample 3, but centrifuged to separate insoluble human collagen gel • 6. 27 μM GdDTPA solution in PBS, pH 7.4 • 7. 27 μM GdDTPA in a solution of 5.0 μM rat type I collagen in 10 mM phosphate buffer, pH 5 incubated at 37° C. overnight to form a gel • 8. Sample prepared as in sample 7, but centrifuged to separate insoluble rat collagen gel • 9. Homogeneous gel of 5 μM rat collagen • 10. Homogeneous gel of 7.5 μM human collagen
T1 was determined for samples 1, 2, 3, 6, 7, 9, 10 at 0.47 Tesla using a Bruker NMS120 minispec NMR analyzer operating at 37° C.

rat type I collagen gel = target: T1, rat type I collagen gel (Rattus norvegicus, UniProt P02454+P02466); assay: MR phantom imaging of collagen gel samples at 4.7 T
T1 construct: Rat collagen (acid soluble, type I, rat tail, Upstate USA, Inc, cat# 08-115); purchased Upstate USA, Inc 08-115; host or cells: rat tail (tissue extract)
T1 sequence (P02454 152-1207 limits assumed): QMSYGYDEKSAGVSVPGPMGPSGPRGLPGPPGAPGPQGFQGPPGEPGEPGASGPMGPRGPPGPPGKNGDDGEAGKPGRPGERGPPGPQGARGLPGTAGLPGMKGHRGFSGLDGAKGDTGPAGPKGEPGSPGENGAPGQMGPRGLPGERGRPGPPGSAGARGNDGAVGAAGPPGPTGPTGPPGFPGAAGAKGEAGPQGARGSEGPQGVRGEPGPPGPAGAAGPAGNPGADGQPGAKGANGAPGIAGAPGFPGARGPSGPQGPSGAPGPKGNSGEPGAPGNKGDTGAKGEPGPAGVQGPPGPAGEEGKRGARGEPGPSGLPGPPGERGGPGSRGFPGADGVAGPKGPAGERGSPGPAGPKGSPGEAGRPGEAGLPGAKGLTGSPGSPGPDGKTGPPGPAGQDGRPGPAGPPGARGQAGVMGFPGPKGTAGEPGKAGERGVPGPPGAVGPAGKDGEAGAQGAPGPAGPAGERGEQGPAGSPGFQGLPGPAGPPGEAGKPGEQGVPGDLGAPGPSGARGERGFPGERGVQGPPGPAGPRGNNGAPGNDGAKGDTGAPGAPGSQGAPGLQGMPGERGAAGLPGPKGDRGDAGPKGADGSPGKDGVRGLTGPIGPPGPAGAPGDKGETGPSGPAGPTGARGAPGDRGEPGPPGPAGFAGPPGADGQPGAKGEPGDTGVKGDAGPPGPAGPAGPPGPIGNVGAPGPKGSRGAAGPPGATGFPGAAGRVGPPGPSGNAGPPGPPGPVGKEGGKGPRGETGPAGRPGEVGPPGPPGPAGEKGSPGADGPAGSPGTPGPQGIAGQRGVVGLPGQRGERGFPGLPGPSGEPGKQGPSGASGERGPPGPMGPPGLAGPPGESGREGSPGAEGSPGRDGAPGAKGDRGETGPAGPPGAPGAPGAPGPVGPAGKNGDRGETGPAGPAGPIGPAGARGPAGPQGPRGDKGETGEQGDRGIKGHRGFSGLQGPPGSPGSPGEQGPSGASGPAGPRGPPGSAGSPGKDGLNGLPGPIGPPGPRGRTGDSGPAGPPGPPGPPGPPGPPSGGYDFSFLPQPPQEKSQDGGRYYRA
T1 sequence (P02466 86-1125 limits assumed): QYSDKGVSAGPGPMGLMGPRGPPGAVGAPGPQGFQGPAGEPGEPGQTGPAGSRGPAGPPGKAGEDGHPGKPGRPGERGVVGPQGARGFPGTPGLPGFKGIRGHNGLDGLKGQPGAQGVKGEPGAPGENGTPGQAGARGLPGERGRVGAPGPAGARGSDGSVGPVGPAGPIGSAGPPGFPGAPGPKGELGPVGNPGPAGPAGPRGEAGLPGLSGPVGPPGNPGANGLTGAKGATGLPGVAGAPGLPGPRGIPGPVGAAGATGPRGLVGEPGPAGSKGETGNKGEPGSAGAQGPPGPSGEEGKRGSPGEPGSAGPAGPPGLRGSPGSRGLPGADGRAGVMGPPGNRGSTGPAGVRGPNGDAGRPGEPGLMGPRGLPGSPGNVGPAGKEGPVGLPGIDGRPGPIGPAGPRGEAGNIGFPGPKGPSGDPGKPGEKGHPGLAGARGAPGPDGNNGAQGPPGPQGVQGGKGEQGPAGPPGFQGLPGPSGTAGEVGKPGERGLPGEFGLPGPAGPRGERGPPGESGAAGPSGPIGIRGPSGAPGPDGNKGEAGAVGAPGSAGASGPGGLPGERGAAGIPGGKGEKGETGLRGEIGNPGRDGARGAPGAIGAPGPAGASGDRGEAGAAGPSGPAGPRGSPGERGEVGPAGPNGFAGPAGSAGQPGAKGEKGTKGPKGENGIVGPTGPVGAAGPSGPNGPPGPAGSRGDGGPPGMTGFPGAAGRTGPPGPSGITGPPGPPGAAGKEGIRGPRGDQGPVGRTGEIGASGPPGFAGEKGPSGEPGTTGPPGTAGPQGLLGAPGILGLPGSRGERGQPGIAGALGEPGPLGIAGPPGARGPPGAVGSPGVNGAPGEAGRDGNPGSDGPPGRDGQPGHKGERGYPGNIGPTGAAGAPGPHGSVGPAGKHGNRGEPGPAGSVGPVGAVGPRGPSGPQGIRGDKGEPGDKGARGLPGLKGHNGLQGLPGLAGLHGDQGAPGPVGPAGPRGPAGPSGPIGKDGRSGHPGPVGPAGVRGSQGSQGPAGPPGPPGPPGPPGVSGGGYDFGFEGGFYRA
Description: as §1
Samples for imaging were placed in glass tubes that were in turn placed in tubes containing water. Images were acquired at 4.7 T on a Bruker Biospec Imager using a Multi-Slice Multi-Echo Method with variable Relaxation Delay (MSMEVTR) experiment. The spin echo time and the relaxation delay were set to TE=11.2 ms and TR=500 ms, respectively with a flip angle of 30°. Images were acquired of sample 2, sample 4, sample 7, and sample 8. […] Sample 7 and 8 show uniform signal intensity.

CC(C)C[C@H](NC(=O)[C@@H]1CSSC[C@H](NC(=O)[C@H](Cc2c[nH]cn2)NC(=O)[C@H](Cc2c[nH]c3ccccc23)NC(=O)[C@H](CCCCNC(=O)CNC(=S)Nc2ccc(C[C@@H](CN(CCN(CC(=O)O)CC(=O)O)CC(=O)O)N(CC(=O)O)CC(=O)O)cc2)NC(=O)CNC(=S)Nc2ccc(C[C@@H](CN(CCN(CC(=O)O)CC(=O)O)CC(=O)O)N(CC(=O)O)CC(=O)O)cc2)C(=O)N[C@@H]([C@@H](C)O)C(=O)N[C@@H]([C@@H](C)O)C(=O)N[C@@H](CCCCNC(=S)Nc2ccc(C[C@@H](CN(CCN(CC(=O)O)CC(=O)O)CC(=O)O)N(CC(=O)O)CC(=O)O)cc2)C(=O)N[C@@H](Cc2ccccc2)C(=O)N2CCC[C@H]2C(=O)N[C@@H](Cc2c[nH]cn2)C(=O)N[C@@H](Cc2c[nH]cn2)C(=O)N[C@@H](Cc2ccc(O)cc2)C(=O)N1)C(=O)N[C@@H](Cc1ccc(O)cc1)C(=O)N[C@@H](Cc1ccc(-c2ccccc2)cc1)C(N)=O [Compound ID 800]
Gadolinium concentrations in the blood [1]: 14.3±2.3 nmol Gd/g tissue
Gadolinium concentrations in the heart [1]: 25.5±2.0 nmol Gd/g tissue
MR appearance of infarct zone (infarcted myocardium [2]): infarct zone as hyperintense relative to the normal, viable myocardium
enhancement of infarcted zones (infarcted myocardium [3]): hyperenhancement of infarcted zones
persistence of the enhancement (infarcted myocardium [3]): at least 1 hour

O=C([O-])CN(CCN(CC(=O)[O-])CC(=O)O)CCN(CC(=O)[O-])CC(=O)O.[Gd+3] [GdDTPA, gadolinium diethylenetriaminepentaacetate, reference compound]
Heart:Blood ([4]; 1 min post injection): 0.26
Heart:Blood ([4]; 5 min post injection): 0.26
Blood (% ID/g) ([4]; 1 min post injection): 1.2 ± 0.2 % ID/g
Heart (% ID/g) ([4]; 1 min post injection): 0.32 ± 0.02 % ID/g
Blood (% ID/g) ([4]; 5 min post injection): 0.67 ± 0.12 % ID/g
Heart (% ID/g) ([4]; 5 min post injection): 0.17 ± 0.08 % ID/g
Heart:Buffer ([5]; buffer 3.0 μM): 0.42 ± 0.06
Heart ([5]; buffer 3.0 μM, 10 minutes recirculating perfusion): 1.3 ± 0.3 nmol/g
Heart:Buffer ([5]; buffer 30 μM): 0.46 ± 0.03
Heart ([5]; buffer 30 μM, 10 minutes recirculating perfusion): 14 ± 1.0 nmol/g
Heart ([5]; perfused Langendorff rat heart, 3 μM compound in recirculated K-H buffer, 10 min perfusion, radiotracer counting): 1.4 ± 0.02 nmol/g
Heart:Buffer ([5]; ratio of heart concentration to buffer concentration (3.0 μM), 10 min perfusion): 0.46 ± 0.05
Heart (% ID/g) ([6]; 0 min after infusion): 2.9 ± 1.5 % ID/g
Heart (% ID/g) ([6]; 10 min after infusion, non-recirculated buffer): 0.014 ± 0.002 % ID/g
Heart (% ID/g) ([6]; time after infusion 0 min, 1 mL of 300 μM infused at 1 mL/min, buffer not recirculated): 2.53 ± 0.50 % ID/g
Heart (% ID/g) ([6]; time after infusion 10 min, 1 mL of 300 μM infused at 1 mL/min, buffer not recirculated): 0.056 ± 0.011 % ID/g
T1 ([7]; in 5.0 μM rat collagen gel, 10 μM Compound ID 1022 or 27 μM GdDTPA): 2.410 s
T1 ([7]; in PBS pH 7.4, 10 μM Compound ID 1022 or 27 μM GdDTPA): 2.437 s
MR signal of centrifuged collagen gel pellet versus supernatant (rat type I collagen gel): no increased concentration of GdDTPA in the gel relative to the supernatant
